According to patent US12550899B2, “Topramezone derivative and use thereof” (priority 2023, dated 2026):
Entries after “also recorded” stand apart in the source; their conditions may differ.

Assays:
[1] = test system: test weeds (grassy weeds, sedge, broadleaf weeds); assay: Laboratory bioactivity efficacy test 2.1, symptoms on the test weeds; format: in vivo; details: test 2.1 weeds
Text: (§1) Refer to the “Pesticides guidelines for laboratory bioactivity tests Part 4: Foliar spray application test for herbicide activity, NY/T 1155.4-2006”.
• grassy weeds: Setaria viridis, Chloris virgata; • sedge: Cyperus rotundus; • Broadleaf weeds: Amaranthus retroflexus, Chenopodium album, Acalypha australis, Commelina communis, Convolvulus arvensis, Cirsium setosum, and Eclipta prostrata. 2.1.3 Test Conditions
The soil used for the test was a mixture of surface 20 cm loam and vermiculite, mixed in a volume ratio of 3:1 to form a culture soil. The test corn was cultured in a glass greenhouse with a temperature ranging from 25° C. to 35° C. and under natural light.
(§2) A measured quantity of weed seeds were sown in plastic pots with a diameter of 9 cm, and covered with 1-2 mm of soil. The ports were then placed in enamel trays filled with water, and watered by bottom irrigation. After sowing, the pots were transferred to the glass greenhouse for cultivation and growth.
(§3) Five dosages were set for Compound I, Compound II and the control herbicide Topramezone, which were 3.75, 7.5, 15, 30 and 60 grams of active ingredient per hectare respectively. In addition, a blank control was also prepared.
The required amount of the herbicide was accurately measured out, an appropriate amount of emulsifier and organic solvent were added to dissolve the herbicide, and then a certain amount of water was added therein until the herbicide was diluted to the required dosage by using the serial dilution method for standby.
The fresh weight of each treatment was surveyed 14 days after the application of the herbicide. The fresh weight control efficacy was calculated according to the following formula: fresh weight control efficacy (%)=(control fresh weight−treatment fresh weight)/control fresh weight×100.

[2] = test system: Digitaria sanguinalis; assay: Laboratory rainfastness test (foliar spray, simulated rainfall); format: in vivo; details: for Average fresh weight / Control efficacy: 20 days post-application
Experimental: as §1
The soil used for the test was a mixture of surface 20 cm loam and vermiculite, mixed in a volume ratio of 3:1 to form a culture soil. The test weeds were cultured in a glass greenhouse with a temperature ranging from 25° C. to 35° C. and under natural light.
as §2, with “Digitaria sanguinalis” for “weed”, “the water seeped to the soil surface,” for “sowing,”, “standby.” for “cultivation and growth.”
as §3
The required amount of the herbicide was accurately measured out and directly added with water, which was diluted to the required dosage by using the serial dilution method for standby.
The test was conducted on Digitaria sanguinalis at the two-leaf and one-heart stage, with the stems and leaves both sprayed uniformly. The ASS-4 automatic control spraying system with a fan-shaped nozzle was used indoors for herbicide application. Depending on the nozzle pressure and flow rate, 50 mL of herbicide solution was applied to a spraying area of 1.1 m^2 (which was equivalent to the water consumption of 30 L per mu). The system's operating speed was calibrated. The plastic pots to be treated were arranged evenly on the spraying platform to ensure uniform treatment. The spray pressure was set to 0.35 MPa, and the flow rate of the fan-shaped nozzle was set to 800 mL/min. The spraying was carried out in sequence from the low dosage to the high dosage. Each treatment was repeated four times.
The rainfastness test was set as follows: at 0.5 hours, 1.0 hour, 3.0 hours, and 6.0 hours after the application of the herbicide, the weeds that have already been sprayed with the herbicide were subjected to stem and leaf showering with a specific shower equipment simulating rainfall. Weeds that were not subjected to the showering treatment served as the control group.
The damage symptoms of the weeds (such as growth inhibition, chlorosis, malformation, etc.) were carefully recorded at 3, 7, 10, and 20 days after herbicide application. A visual comparison of the herbicide effectiveness was made after simulated rainfall at different time intervals. At 20 days post-application, the fresh weight of the aboveground parts of the weeds from each treatment group was measured, and the fresh weight control efficacy was calculated.
The treatment results were calculated according to the following formula: weed fresh weight control efficacy (%)=(control fresh weight−treatment fresh weight)/control fresh weight×100. A DPS statistical software was used to conduct regression analysis on the logarithmic values of the herbicide dosage and the probit values of the weed fresh weight control efficacy, and the correlation coefficient, GR50, GR90, and the 95% confidence interval were calculated.

[3] = No spraying (no simulated rainfall), dosage 3.75 g/hectare
[4] = No spraying (no simulated rainfall), dosage 7.5 g/hectare
[5] = No spraying (no simulated rainfall), dosage 15 g/hectare
[6] = No spraying (no simulated rainfall), dosage 30 g/hectare
[7] = No spraying (no simulated rainfall), dosage 60 g/hectare
[8] = Spraying water 0.5 hour after herbicide application, dosage 3.75 g/hectare
[9] = Spraying water 0.5 hour after herbicide application, dosage 7.5 g/hectare
[10] = Spraying water 0.5 hour after herbicide application, dosage 15 g/hectare
[11] = Spraying water 0.5 hour after herbicide application, dosage 30 g/hectare
[12] = Spraying water 0.5 hour after herbicide application, dosage 60 g/hectare
[13] = Spraying water 1.0 hour after herbicide application, dosage 3.75 g/hectare
[14] = Spraying water 1.0 hour after herbicide application, dosage 7.5 g/hectare
[15] = Spraying water 1.0 hour after herbicide application, dosage 15 g/hectare
[16] = Spraying water 1.0 hour after herbicide application, dosage 30 g/hectare
[17] = Spraying water 1.0 hour after herbicide application, dosage 60 g/hectare
[18] = Spraying water 3.0 hour after herbicide application, dosage 3.75 g/hectare
[19] = Spraying water 3.0 hour after herbicide application, dosage 7.5 g/hectare
[20] = Spraying water 3.0 hour after herbicide application, dosage 15 g/hectare
[21] = Spraying water 3.0 hour after herbicide application, dosage 30 g/hectare
[22] = Spraying water 3.0 hour after herbicide application, dosage 60 g/hectare
[23] = Spraying water 6.0 hour after herbicide application, dosage 3.75 g/hectare
[24] = Spraying water 6.0 hour after herbicide application, dosage 7.5 g/hectare
[25] = Spraying water 6.0 hour after herbicide application, dosage 15 g/hectare
[26] = Spraying water 6.0 hour after herbicide application, dosage 30 g/hectare
[27] = Spraying water 6.0 hour after herbicide application, dosage 60 g/hectare
[28] = rain 0.5 h, 1.0 h and 3.0 h after application

Compound: Cc1c(C(=O)c2cnn(C)c2O)ccc(S(C)(=O)=O)c1C1=NOCC1 [Topramezone]
- Symptoms on the test weeds [1]: clear pesticidal efficacy symptoms
- Average fresh weight [2, 3]: 6.2 g
- Control efficacy [2, 3]: 4.6%
- Average fresh weight [2, 4]: 5.0 g
- Control efficacy [2, 4]: 23.4%
- Average fresh weight [2, 5]: 3.7 g
- Control efficacy [2, 5]: 43.7%
- Average fresh weight [2, 6]: 2.3 g
- Control efficacy [2, 6]: 64.8%
- Average fresh weight [2, 7]: 1.2 g
- Control efficacy [2, 7]: 82.4%
- Average fresh weight [2, 8]: 6.5 g
- Control efficacy [2, 8]: 0.0%
- Average fresh weight [2, 9]: 6.0 g
- Control efficacy [2, 9]: 7.7%
- Average fresh weight [2, 10]: 5.9 g
- Control efficacy [2, 10]: 10.3%
- Average fresh weight [2, 11]: 5.5 g
- Control efficacy [2, 11]: 16.5%
- Average fresh weight [2, 12]: 4.6 g
- Control efficacy [2, 12]: 29.1%
- Average fresh weight [2, 13]: 6.4 g
- Control efficacy [2, 13]: 2.7%
- Average fresh weight [2, 14]: 6.0 g
- Control efficacy [2, 14]: 8.0%
- Average fresh weight [2, 15]: 5.7 g
- Control efficacy [2, 15]: 13.4%
- Average fresh weight [2, 16]: 5.3 g
- Control efficacy [2, 16]: 19.2%
- Average fresh weight [2, 17]: 4.7 g
- Control efficacy [2, 17]: 28.0%
- Average fresh weight [2, 18]: 6.4 g
- Control efficacy [2, 18]: 1.5%
- Average fresh weight [2, 19]: 5.8 g
- Control efficacy [2, 19]: 10.7%
- Average fresh weight [2, 20]: 5.7 g
- Control efficacy [2, 20]: 13.4%
- Average fresh weight [2, 21]: 4.1 g
- Control efficacy [2, 21]: 36.8%
- Average fresh weight [2, 22]: 3.3 g
- Control efficacy [2, 22]: 50.2%
- Average fresh weight [2, 23]: 6.5 g
- Control efficacy [2, 23]: 0.4%
- Average fresh weight [2, 24]: 5.1 g
- Control efficacy [2, 24]: 21.8%
- Average fresh weight [2, 25]: 3.5 g
- Control efficacy [2, 25]: 46.0%
- Average fresh weight [2, 26]: 2.7 g
- Control efficacy [2, 26]: 59.4%
- Average fresh weight [2, 27]: 1.2 g
- Control efficacy [2, 27]: 81.2%
- Effect of rain on control efficacy (in words) [2, 28]: obviously affected; also recorded: significantly reduced
- Effect of rain on control efficacy (in words) ([2]; rain 6.0 h after application): relatively small impact; also recorded: almost unaffected

Compound: COC(=O)OC(C)Oc1c(C(=O)c2ccc(S(C)(=O)=O)c(C3=NOCC3)c2C)cnn1C (centres unmarked) [Compound I, 1-((4-(3-(4,5-dihydroisoxazol-3-yl)-2-methyl-4-(methylsulfonyl)benzoyl)-1-methyl-1H-pyrazol-5-yl)oxy)ethyl methyl carbonate]
- Symptoms on the test weeds [1]: clear pesticidal efficacy symptoms
- Average fresh weight [2, 3]: 6.3 g
- Control efficacy [2, 3]: 3.1%
- Average fresh weight [2, 4]: 5.1 g
- Control efficacy [2, 4]: 21.8%
- Average fresh weight [2, 5]: 3.2 g
- Control efficacy [2, 5]: 50.6%
- Average fresh weight [2, 6]: 2.6 g
- Control efficacy [2, 6]: 60.5%
- Average fresh weight [2, 7]: 1.1 g
- Control efficacy [2, 7]: 82.8%
- Average fresh weight [2, 8]: 6.1 g
- Control efficacy [2, 8]: 6.9%
- Average fresh weight [2, 9]: 5.1 g
- Control efficacy [2, 9]: 22.2%
- Average fresh weight [2, 10]: 3.6 g
- Control efficacy [2, 10]: 45.6%
- Average fresh weight [2, 11]: 2.6 g
- Control efficacy [2, 11]: 60.9%
- Average fresh weight [2, 12]: 1.1 g
- Control efficacy [2, 12]: 82.8%
- Average fresh weight [2, 13]: 6.1 g
- Control efficacy [2, 13]: 7.3%
- Average fresh weight [2, 14]: 5.2 g
- Control efficacy [2, 14]: 21.1%
- Average fresh weight [2, 15]: 3.9 g
- Control efficacy [2, 15]: 41.0%
- Average fresh weight [2, 16]: 2.3 g
- Control efficacy [2, 16]: 64.8%
- Average fresh weight [2, 17]: 0.9 g
- Control efficacy [2, 17]: 86.6%
- Average fresh weight [2, 18]: 5.6 g
- Control efficacy [2, 18]: 14.9%
- Average fresh weight [2, 19]: 4.7 g
- Control efficacy [2, 19]: 28.7%
- Average fresh weight [2, 20]: 3.3 g
- Control efficacy [2, 20]: 50.2%
- Average fresh weight [2, 21]: 2.7 g
- Control efficacy [2, 21]: 58.2%
- Average fresh weight [2, 22]: 0.9 g
- Control efficacy [2, 22]: 86.6%
- Average fresh weight [2, 23]: 6.0 g
- Control efficacy [2, 23]: 8.4%
- Average fresh weight [2, 24]: 5.0 g
- Control efficacy [2, 24]: 23.4%
- Average fresh weight [2, 25]: 2.7 g
- Control efficacy [2, 25]: 58.6%
- Average fresh weight [2, 26]: 2.3 g
- Control efficacy [2, 26]: 64.4%
- Average fresh weight [2, 27]: 1.1 g
- Control efficacy [2, 27]: 82.8%
- Rainfastness compared with Topramezone (in words) ([2]; in vivo): significantly better rainfastness
- Effect of rain on control efficacy (in words) [2, 28]: remained stable
- Effect of rain on control efficacy (in words) ([2]; rain 0.5 h after application): little impact; also recorded: almost unaffected
